Measurements reported in US9012439B2, “Use of electrophilic compounds for inducing platelet production or maintaining platelet function” (University of Rochester, priority 2007, dated 2015).
“Also recorded” adds a separate entry of the source.

What was measured:
Meg-01 cells [1] = test: Platelet production from Meg-01 cells (flow cytometry); format: cell-based, human
Experimental: (§1) Meg-01 and M07e cells were purchased from the American Type Culture Collection (Rockville, Md.) and Dami cells were a generous gift from Dr. Patricia J. Simpson-Haidaris (University of Rochester). All cells were cultured in RPMI-1640 tissue culture medium (Invitrogen) supplemented with 5% fetal bovine serum (FBS; Invitrogen), 10 mM HEPES (N-2-hydroxyethylpiperazine-N′-2-ethanesulfonic acid; Sigma), 2 mM L-glutamine (Invitrogen), 4.5 g/L glucose (Invitrogen), and 50 μg/mL gentamicin (Invitrogen). M07e cells were also supplemented with 100 ng/mL of granulocyte monocyte-colony stimulating factor (GM-CSF, R&D Systems). All treatments were performed in normal growth media. Dimethyl sulfoxide (DMSO) was used as a vehicle (control) in the experiments described below.
Platelets were isolated from megakaryocytes by centrifugation at 150 xg for 10 min. Supernatants underwent sequential centrifugation (500 xg for 10 min and 1000×g for 10 min). The remaining platelet pellet was fixed then permeabilized with a CD61 or CD41 antibody. 7-AAD (BD Pharmingen) was added for 10 min before analyzing the cells by flow cytometry. Platelets were identified using three well-described parameters (Patel et al., “The Biogenesis of Platelets from Megakaryocyte Proplatelets,” J Clin Invest 115:3348-3354 (2005); Breton-Gorius et al., “Expression of Platelet Proteins During the In Vitro and In Vivo Differentiation of Megakaryocytes and Morphological Aspects of Their Maturation,” Semin Hematol 23:43-67 (1986); Ogura et al., “Establishment of a Novel Human Megakaryoblastic Leukemia Cell Line, MEG-01, With Positive Philadelphia Chromosome,” Blood 66:1384-1392 (1985) and Franks et al., “A Fluorescence Microscopy Method for Quantifying Levels of Prostaglandin Endoperoxide H Synthase-1 and CD-41 in MEG-01 Cells,” Biol Proced Online 3:54-63 (2001), each of which is hereby incorporated by reference in its entirety), size (using normal human platelets as a control), presence of CD61 or CD41 and lack of DNA as determined by the absence of 7-AAD staining Ten thousand platelet events were collected and platelets were quantified by rate (platelet events/second) (Chung et al., “Platelet Activation in Acute, Decompensated Congestive Heart Failure,” Thromb Res 120:709-713 (2007), which is hereby incorporated by reference in its entirety.
A 19 by target sequence was selected to knock down PPARγ. PPARγ was cloned downstream of the RNA polymerase III U6 promoter and subcloned into a FG12 lentiviral vector which expresses green fluorescent protein (GFP) under the Ubiquitin C promoter. HEK 293 cells expressing this siRNA PPARγ had reduced PPARγ protein levels. To make the lentivirus, HEK 293 cells were co-transfected with 3 plasmids: the envelope vector (CMV-VSVG), the transfer vector (FG12-shRNAPPAR), and the packaging construct (pCMVΔ89.2 (gag/pol proteins)). Viral supernatants were collected every 8 h for 2 days and concentrated by ultracentrifugation at 50,000×g for 2 h at 4° C. using a Beckman SW 28 rotor. Viral titers were determined by infection of HeLa cells with serial dilutions of the viral stocks. Meg-01 cells were infected at a multiplicity of infection (MOI) of 20. After 48 h, approximately 56% of the PPARγ siRNA cells were transduced as determined by flow cytometry. The GFP positive (+) cells were then sorted by FACS and grown in RPMI with 5% FBS.

Meg-01 cells [2] = test: DNA content analysis of Meg-01 cells; format: cell-based, human; settings: 10 μM
Experimental: (§2) Cells were fixed in 95% ethanol, treated with RNAse (Sigma) followed by 20 μg/mL propidium iodide (Sigma) to stain DNA, and analyzed by flow cytometry.

Meg-01 cells [3] = test: Meg-01 morphology (phalloidin f-actin staining, transmission electron microscopy); format: cell-based, human; settings: 10 μM
Experimental: Cells were fixed and permeabilized with 0.1% triton-100 for 1 h at room temperature (RT). Subsequently, cells were blocked with 1% bovin serum albumin (BSA) in PBS-Tween 20 (0.1%) for 1 h at RT then stained with phalloidin-Alexa Fluor 488 (Invitrogen, 1:200) at RT for 2 h. Cells were mounted and visualized using an Olympus BX51 light microscope (Olympus, Melville, N.Y.).
Cells were fixed for 4 h in 2.5% glutaraldehyde in 0.1 M sodium cacodylate buffer. Post-fixation cells were placed in 1% osmium tetroxide in phosphate buffer, dehydrated in ethanol, embedded in EPON/Araldite epoxy resin and analyzed on a Hitachi H-7100 electron microscope.

[4] = tested on: primary human megakaryocytes; test: Reactive oxygen species production in primary human megakaryocytes; format: cell-based; settings: 1 h and 6 h
Experimental: Human CD34+ cord blood cells were obtained from the National Disease Research Interchange (NDRI, Philadelphia, Pa.). Cells were plated at 2.5×10^5 cells per well in a 12-well plate and cultured in serum-free medium as previously described (Zeuner et al., “Chemotherapy-induced Thrombocytopenia Derives from the Selective Death of Megakaryocyte Progenitors and Can Be Rescued by Stem Cell Factor,” Cancer Res 67:4767-4773 (2007), which is hereby incorporated by reference in its entirety) and supplemented with 100 ng/mL of rhTPO. After 14 days in culture, megakaryocytes were identified by staining with a CD61-FITC antibody and analyzed on a BD Biosciences FACSCalibur flow cytometer. Data were analyzed using FlowJo software (Treestar, Ashland, Oreg.). Cell images were captured using an inverted microscope (Olympus IX81). Ten μM carboxy-H2DCFDA was added to cells for 20 min at RT. The cells were washed and immediately analyzed by flow cytometry. Five μM of MitoSOX Red dye in HBSS containing Mg^2+ and Ca^2+ was added to the cells for 15 min at 37° C. The cells were washed in HBSS and analyzed by flow cytometry.

[5] = tested on: primary mouse megakaryocytes; test: DNA content analysis of primary mouse megakaryocytes; format: cell-based
Experimental: Bone marrow was isolated from the femora of male C57BL/6 mice (Jackson Laboratories, Bar Harbor, Me.) and plated at a concentration of 1×10^6 cells per well in 12-well plates in IMDM (Iscove's Modified Dulbecco's Media, Invitrogen) with 20% BIT 9500 (BSA, insulin, transferrin) and supplemented with 100 ng/mL of rhTPO. Cells were cultured for 5 days, following which 15d-PGJ2 (10 μM) was added to the culture medium for 24 h. On the sixth day, cells were examined by phase-contrast microscopy using an inverted microscope (Olympus IX81) and images were captured using SPOT RT software (New Hyde Park, N.Y.). Megakaryocytes were identified by preincubating with anti-mouse CD16/32 (FcγR-blocking antibody) and then incubating with PE-conjugated hamster anti-mouse CD41 antibody.
as §2

Dami cells = test: Platelet production from Dami cells (flow cytometry); format: cell-based; settings: 10 μM, 24 h
Experimental: as §1
Platelets were isolated from megakaryocytes by centrifugation at 150 xg for 10 min. Supernatants underwent sequential centrifugation (500 xg for 10 min and 1000×g for 10 min). The remaining platelet pellet was fixed then permeabilized with a CD61 or CD41 antibody. 7-AAD (BD Pharmingen) was added for 10 min before analyzing the cells by flow cytometry. […]

CCCCCC=CC=C1C(=O)C=C[C@@H]1CC=CCCCC(=O)O [15d-PGJ2, 15-deoxy-Δ^12,14 prostaglandin J2]
platelet-enhancing effect after PPARγ protein knock-down (Meg-01 cells [1]; Meg-01 cells infected with PPARγ siRNA lentivirus, 15d-PGJ2 24 h): failed to attenuate the platelet-enhancing effects of 15d-PGJ2 | platelet production (Meg-01 cells [1]; Meg-01 cells, 10 μM, 24 h): increased platelet production; also recorded: enhanced Meg-01 platelet production | platelet production with increasing concentrations (Meg-01 cells [1]; Meg-01 cells, increasing concentrations, 24 h): dose-dependent increase in platelet production | DNA content (Meg-01 cells [2]; 24 h and 48 h): unchanged | DNA content (Meg-01 cells [2]; 72 h): increased DNA content | morphological changes by f-actin (phalloidin) staining (Meg-01 cells [3]; within 1-2 h): Morphological changes, characteristic of megakaryopoiesis | structural characteristics by transmission electron microscopy (Meg-01 cells [3]; within 24 h): structural characteristics consistent with differentiating cells | percentage of ROS positive cells, Mitosox Red staining [4]: increase in the percentage of ROS positive cells | percentage of ROS positive cells, carboxy-H2DCFDA staining [4]: increase in the percentage of ROS positive cells | primary mouse megakaryocyte ploidy ([5]; by 24 h): enhanced primary mouse megakaryocyte ploidy | DNA content ([5]; primary mouse megakaryocytes, 10 μM, 24 h): increased DNA content | platelet production (Dami cells): increased platelet production
